Numbered stars: 1 amine (or outer) side, 2 acyl side, 3 side chain; on linkers, the order of the positions; unused ones are H or OH. Bridge positions count the residues as written; N and C are the ends. Square brackets hold non-standard residues; d marks the D form. Peptide text beside a SMILES is read from it. ξ: configuration not given here. dPhe(4-Cl) = N[C@H](Cc1ccc(Cl)cc1)C(=O)O; 2Nal = N[C@@H](Cc1ccc2ccccc2c1)C(=O)O; Suc = O=C(CCC(=O)[*:2])[*:1]; ξE = NC(CCC(=O)O)C(=O)O; ξDab = NCCC(N)C(=O)O; ξK = NCCCCC(N)C(=O)O; ξDap = NCC(N)C(=O)O; Ava = NCCCCC(=O)O; GABA = NCCCC(=O)O

Test [1] concerns the target T1, MC4R (Homo sapiens, UniProt P32245). Nature of the test: Competitive binding assay, [125I]-NDP-α-MSH, CHO cell membranes. Details: expressed in transfected cells; host or cells: Chinese hamster ovary (CHO) cells. The settings on record: for Selectivity Binding IC50 3R/4R: ratio of IC50 hMC-3R / hMC-4R; for Selectivity Binding IC50 5R/4R: ratio of IC50 hMC-5R / hMC-4R. As for the experimental part: The peptides of the present invention were evaluated for […] in receptor binding assay. Crude membrane preparations were obtained from Chinese hamster ovary cells expressing human MC3, MC4, and MC5 receptors. Cells were rinsed with phosphate-buffered saline (PBS) lacking CaCl2 or MgCl2 (Life Technologies, Gaithersburg, Md., USA), and then detached with enzyme-free dissociation media (Specialty Media, Lavellette, N.J., USA). Cells were pelleted at 2800×g for 10 minutes and resuspended in membrane buffer (20 mM Tris, pH 7.2, 5 mM ethylenediaminetetraacetic acid) with 5 μg/ml leupeptin, 5 μg/ml aprotinin, 40 μg/ml bacitracin, and 25 μg/m pefabloc (Boehringer Mannheim). The cells were […] with 10 strokes by using a motor-driven Teflon-coated pestle in a glass homogenizer at low speed. The resulting cell suspension was centrifuged at 4100×g, 4° C., for 20 minutes. The pellet was resuspended in fresh membrane buffer with protease inhibitors, aliquoted, snap-frozen in liquid nitrogen, and stored at −80° C. The resulting crude membranes were titrated to determine the optimal level necessary for performing binding studies. Results
Binding reactions (total volume=[…]) contained MBB (50 mM Tris, pH 7.2, 2 mM CaCl2, 1 mM MgCl2), 0.1% bovine serum albumin, crude membranes prepared from cells expressing human MC3, MC4, or MC5 receptor, 200 pM of [125I]-NDP-α-MSH (Amersham, Arlington Heighs, Ill., USA), and increasing concentrations of unlabeled test compounds dissolved in dimethylsulfoxide (final concentration=2%). Reactions were incubated for 1 hour without shaking and then filtered through 96-well filter plates (Packard), presoaked in 1% polyethyleneimine. Filters were washed 3 times with TNE buffer (50 mM Tris, pH 7.4, 5 mM ethylenediaminetetraacetic acid, 150 mM NaCl), dried and counted by using Microscint-20 in a Topcount scintillation counter (Packard). Nonspecific binding was determined in the presence of 2 μm of unlabeled NDP-α-MSH (Peninsula Laboratories). Active peptides were evaluated in three independent experiments.
Target sequence in this assay (P32245 whole entry): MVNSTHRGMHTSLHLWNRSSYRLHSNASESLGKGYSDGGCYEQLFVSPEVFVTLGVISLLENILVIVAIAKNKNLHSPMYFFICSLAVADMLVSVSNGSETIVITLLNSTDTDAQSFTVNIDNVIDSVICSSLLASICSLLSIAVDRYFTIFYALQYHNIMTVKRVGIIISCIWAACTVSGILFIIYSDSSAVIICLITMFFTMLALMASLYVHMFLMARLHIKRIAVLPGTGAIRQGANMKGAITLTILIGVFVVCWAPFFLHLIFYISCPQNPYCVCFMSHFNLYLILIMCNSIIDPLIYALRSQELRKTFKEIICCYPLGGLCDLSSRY

For test [2], the target named is T1, MC4R. Nature of the test: cAMP assay in CHO cells expressing a human melanocortin receptor. The settings on record: for Selectivity cAMP EC50 3R/4R: ratio of EC50 hMC-3R / hMC-4R; for Selectivity cAMP EC50 5R/4R: ratio of EC50 hMC-5R / hMC-4R. Details: expressed in transfected cells; host or cells: Chinese hamster ovary (CHO) cells. The format is cell-based. As for the experimental part: (§1) Chinese hamster ovary cells expressing a human melanocortin receptor were rinsed with calcium-and magnesium-free PBS (Life Technologies), and detached from the tissue culture flasks by 5-minutes incubation with enzyme-free dissociation buffer (S-014-B, Specialty Media). Cells were collected by centrifugation and resuspended in Earle's balanced salt solution (Life Technologies) with addition of 10 mM 4-(2-hydroxyethyl)-1-piperazineethanesulfonic acid (Hepes) buffer, pH 7.5, 5 mM MgCl2, 1 mM glutamine, and 1 mg/ml bovine serum albumin to concentration of 1-5×10^6 cells/ml. Subsequently, cells were counted and the cell suspension was treated with the phosphodiesterase inhibitor 3-isobutyl-1-methylxanthine (to concentration of 0.6 mM).
(§2) A test compound was dissolved in dimethyl sulfoxide (DMSO, 10^−3 to 10^−8 M), diluted with buffer and 0.1 volume of the solution was added to 0.9 volumes of the cell suspension (1 to 5×10^5 cells); final concentration of DMSO was 1%. After 45 minutes at room temperature, cells were lysed by incubation at 100° C. for 5 minutes to release accumulated cAMP. Accumulation of cAMP was measured in an aliquot of the cell lysate with the Amersham (Arlington Heights, Ill.) cAMP detection assay kit (RPA556). The amount of cAMP produced in response to a tested compound was compared to the amount of cAMP produced in response to α-MSH, defined as a 100% agonist. All active peptides were characterized in three independent experiments.
Target sequence in this assay (P32245 whole entry): as above

Test [3] addresses T2, MC5R (Homo sapiens, UniProt P33032). The test is described as above. The settings on record: @ 5 (concentration unit not given); cAMP relative to α-MSH defined as 100% agonist. Details: expressed in transfected cells; host or cells: Chinese hamster ovary (CHO) cells. The format is cell-based. As for the experimental part: as §1, §2
Target sequence in this assay (P33032 whole entry, the tested form may be a part): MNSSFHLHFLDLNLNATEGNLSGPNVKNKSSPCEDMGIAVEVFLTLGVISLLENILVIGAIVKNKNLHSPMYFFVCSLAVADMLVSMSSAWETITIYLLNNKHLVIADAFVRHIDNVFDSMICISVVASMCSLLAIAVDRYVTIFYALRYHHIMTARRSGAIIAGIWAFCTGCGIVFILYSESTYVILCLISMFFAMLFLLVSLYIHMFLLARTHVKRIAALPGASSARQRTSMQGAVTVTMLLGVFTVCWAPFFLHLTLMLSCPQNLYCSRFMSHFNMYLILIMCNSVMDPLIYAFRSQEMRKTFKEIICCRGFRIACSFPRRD
For another test, the system named is AA rats. The settings on record: MTII by central infusion; cited from earlier work.
In a further test the test system is C57BL/6J mice. The test can be described thus: Ethanol consumption following central (i.c.v.) infusion of MC4R agonist. The format is in vivo. The settings on record: for reduction of alcohol consumption: 20% ethanol, vs aCSF. The source says:
The generation of Mc3r^−/− mice has been described (Chen, S. et al., Nature Genetics (2000) 26: 97-102). Mc3r^−/− mice are born at the expected frequency and are viable and fertile. […] Studies described below utilized male and female Mc3r^−/− and/or Mc3r^+/+ mice of a C57BL/6J genetic background, 8 to 12 weeks of age at the start of experiment. Non-littermate heterozygous (Mc3r^+/−) mice were bred, resulting in Mc3r^−/− and Mc3r ^+/+ F2 littermate mice. Mice were individually housed in polypropylene cages with wood-chip bedding and had ad libitum access to standard rodent chow (Teklad, Madison, Wis.) and water throughout the experiments except where noted. The colony room was maintained at approximately 22° C. with a 12h:12h light:dark cycle. All procedures used in the present research were in compliance with the National Institute of Health guidelines, and the protocols were approved by the University of North Carolina Animal Care and Use Committee.
Naïve mice were anesthetized with a cocktail of ketamine (117 mg/kg) and xylazine (7.92 mg/kg) and surgically implanted with a 26-gauge cannula (Plastic One, Roanoke, Va.) aimed at the left-lateral ventricle using the following stereotaxic coordinates: 0.2 mm posterior to bregma, 1.0 mm lateral to the midline, and 2.3 mm ventral to the skull surface. Mice were allowed to recover for approximately 2 weeks before experimental procedures were initiated. After experimental procedures, cannula placement was verified histologically. The i.c.v. infusions were given in a 1.0 μl volume with a 5.0 μl Hamilton syringe and infused manually over a one minute period. Mice were acclimated for approximately 2 weeks to drinking from two bottles (continuous 24 hour/day access), one containing water and the other containing 20% ethanol, and body weights were recorded weekly. Following acclimation, mice were distributed to groups based on the last 4-days of baseline ethanol consumption (g/kg/day).
Mice were weighed and ethanol, water, and food were removed from their cages two hours before the beginning of the dark cycle. For the study with i.c.v. infusion of MC4R agonist, C57B1/6J mice were given infusion of either 1.0 or 3.0 μg of the MC4R-selective agonist, cyclo(NH—CH2—CH2—CO-His-D-Phe-Arg-Trp-Glu)-NH2 (Compound A, Phoenix Pharmaceuticals, Inc., Belmont, Calif.) dissolved in aCSF (ns=7 and 8, respectively) or an equal volume of aCSF (n=10) one hour before the beginning of the dark cycle. The 20% ethanol solution, water, and food were returned immediately before the dark cycle and consumption measures were recorded 4 hours and 24 hours later. One-way (drug) ANOVAs were used to assess consumption of 20% ethanol following i.c.v. infusion of MC4R agonist or aCSF.

Test [4] has as its target T1, MC4R. The settings on record: cited from earlier work.
Target sequence in this assay (P32245 whole entry, species assumed): as the sequence (P32245 whole entry) above
Test [5] concerns the target T2, MC5R. The settings on record: cited from earlier work.
Target sequence in this assay (P33032 whole entry, species assumed, the tested form may be a part): as the sequence (P33032 whole entry, the tested form may be a part) above

With `N=C(N)NCCC[C@@H]1NC(=O)[C@@H](Cc2ccccc2)NC(=O)[C@H](Cc2c[nH]cn2)NC(=O)CCC(=O)NCCCCC(C(N)=O)NC(=O)[C@H](Cc2c[nH]c3ccccc23)NC1=O` (stereo partly shown) [Example 1] (H[dF]RW[ξK]-NH2; linker N-5 via Suc), at MC4R [1], the “Selectivity Binding IC50 3R/4R” value turned out to be 16.7 and the “Selectivity Binding IC50 5R/4R” value is on record as 124. Moreover, on MC4R [2], the “Selectivity cAMP EC50 3R/4R” value is on record as 33 and the “Selectivity cAMP EC50 5R/4R” value amounted to 357.

Turning to `N=C(N)NCCC[C@@H]1NC(=O)[C@@H](Cc2ccccc2)NC(=O)[C@H](Cc2c[nH]cn2)NC(=O)CCC(=O)NCCC(C(N)=O)NC(=O)[C@H](Cc2c[nH]c3ccccc23)NC1=O` (stereo partly shown) [Example 2] (H[dF]RW[ξDab]-NH2; linker N-5 via Suc), on MC4R [1], the “Selectivity Binding IC50 3R/4R” value is recorded as 51.3 and the “Selectivity Binding IC50 5R/4R” value is 205. On MC4R [2], the “Selectivity cAMP EC50 3R/4R” value was 83 and the “Selectivity cAMP EC50 5R/4R” value worked out at 758.

Turning to `N=C(N)NCCC[C@@H]1NC(=O)[C@@H](Cc2ccccc2)NC(=O)[C@H](Cc2c[nH]cn2)NC(=O)CCC(=O)NCC(C(N)=O)NC(=O)[C@H](Cc2c[nH]c3ccccc23)NC1=O` (stereo partly shown) [Example 3] (H[dF]RW[ξDap]-NH2; linker N-5 via Suc), at MC4R [1], the “Selectivity Binding IC50 3R/4R” value is reported as 22.5 and the “Selectivity Binding IC50 5R/4R” value stood at 50.7. In addition, at MC4R [2], the “Selectivity cAMP EC50 3R/4R” value is on record as 17.8. Also, the “cAMP Assay hMC-5R, % @ 5” value at MC5R [3] worked out at 12% @ 5.

Turning to `N=C(N)NCCC[C@@H]1NC(=O)[C@@H](Cc2ccc(Cl)cc2)NC(=O)[C@H](Cc2c[nH]cn2)NC(=O)CCC(=O)NCCCCC(C(N)=O)NC(=O)[C@H](Cc2c[nH]c3ccccc23)NC1=O` (stereo partly shown) [Example 4] (H[dPhe(4-Cl)]RW[ξK]-NH2; linker N-5 via Suc), on MC4R [1], the “Selectivity Binding IC50 3R/4R” value worked out at 10 and the “Selectivity Binding IC50 5R/4R” value is 54. Further, on MC4R [2], the “Selectivity cAMP EC50 3R/4R” value stood at 54 and the “Selectivity cAMP EC50 5R/4R” value is on record as 229.7.

For the molecule `N=C(N)NCCC[C@@H]1NC(=O)[C@@H](Cc2ccccc2)NC(=O)[C@H](Cc2c[nH]cn2)NC(=O)CCC(=O)NCCCCC(C(N)=O)NC(=O)[C@H](Cc2ccc3ccccc3c2)NC1=O` (stereo partly shown) [Example 5] (H[dF]R[2Nal][ξK]-NH2; linker N-5 via Suc), at MC4R [1], the “Selectivity Binding IC50 3R/4R” value is recorded as 33.85 and the “Selectivity Binding IC50 5R/4R” value came out at 1538. Moreover, on MC4R [2], the “Selectivity cAMP EC50 3R/4R” value was determined as 97.3 and the “Selectivity cAMP EC50 5R/4R” value stood at 1351.3.

With `N=C(N)NCCC[C@@H]1NC(=O)[C@@H](Cc2ccccc2)NC(=O)[C@H](Cc2c[nH]cn2)NC(=O)CCCCNC(=O)CCC(C(N)=O)NC(=O)[C@H](Cc2c[nH]c3ccccc23)NC1=O` (stereo partly shown) [Example 6] ([Ava]H[dF]RW[ξE]-NH2; lactam N-6), on MC4R [1], the “Selectivity Binding IC50 3R/4R” value was determined as 48 and the “Selectivity Binding IC50 5R/4R” value is 750. In addition, on MC4R [2], the “Selectivity cAMP EC50 3R/4R” value worked out at 70.4 and the “Selectivity cAMP EC50 5R/4R” value amounted to 703.7.

Consider `N=C(N)NCCC[C@@H]1NC(=O)[C@@H](Cc2ccccc2)NC(=O)[C@H](Cc2c[nH]cn2)NC(=O)CCCNC(=O)CCC(C(N)=O)NC(=O)[C@H](Cc2c[nH]c3ccccc23)NC1=O` (stereo partly shown) [Example 7] ([GABA]H[dF]RW[ξE]-NH2; lactam N-6), for which, at MC4R [1], the “Selectivity Binding IC50 3R/4R” value was determined as 44 and the “Selectivity Binding IC50 5R/4R” value is recorded as 121.9. On MC4R [2], the “Selectivity cAMP EC50 3R/4R” value is on record as 54.39 and the “Selectivity cAMP EC50 5R/4R” value is recorded as 877.

As for `N=C(N)NCCC[C@@H]1NC(=O)[C@@H](Cc2ccccc2)NC(=O)[C@H](Cc2c[nH]cn2)NC(=O)CNC(=O)CCC(C(N)=O)NC(=O)[C@H](Cc2c[nH]c3ccccc23)NC1=O` (stereo partly shown) [Example 9] (GH[dF]RW[ξE]-NH2; lactam N-6), at MC4R [1], the “Selectivity Binding IC50 3R/4R” value is listed as 3.45 and the “Selectivity Binding IC50 5R/4R” value came out at 3.45. Further, the “Selectivity cAMP EC50 3R/4R” value on MC4R [2] came out at 62.86. For the same molecule, the “cAMP Assay hMC-5R, % @ 5” value on MC5R [3] is 15% @ 5.

In the case of MTII, in the test with AA rats, the “effect on voluntary ethanol drinking” value is listed as “significantly reduces voluntary ethanol drinking”.

As to “cyclo(NH—CH2—CH2—CO-His-D-Phe-Arg-Trp-Glu)-NH2 (FRWE; cyclic with beta-alanine linker, His, C-terminal amide; printed: Phe-Arg-Trp-Glu) [Compound A]”, in the test on C57BL/6J mice (1.0 μg i.c.v.), the “reduction of alcohol consumption” value was 67%. Moreover, in the test with C57BL/6J mice (3.0 μg i.c.v.), the “reduction of alcohol consumption” value was found to be 86%. In addition, the “effect on ethanol drinking” value in the test with C57BL/6J mice (C57BL/6J mice) is “significant reduction of ethanol drinking”. The “less alcohol consumed than untreated controls” value in the test with C57BL/6J mice (C57BL/6J mice, dose not given) was “up to 86%”. Moreover, in the test with MC4R [4], the “selectivity for MC4R over MC3R” value is 90 fold and the “selectivity for MC4R over MC5R” value was “greater than 2000 fold”. Besides, the “binding and activation of MC5R” value in the test with MC5R [5] was “extremely weak binding and activation of MC5R”.

These data come from US20070155660A1, “Inhibition of voluntary ethanol consumption with selective melanocortin 4-receptor agonists” (priority 2003, published 2007).
